# Reference: patent US7776873B2, “Method for treating damage to gastric mucosa” (Yuhan Corporation, priority 2005, dated 2010)
# Columns and labels:
# [1] = system: rat gastric mucosal (RGM-1) cells; test: Incidence of ethanol-induced cell death (MTT assay-2); type: cell-based; conditions: FIG. 2
# Description: The rat gastric mucosal (RGM-1, RIKEN cell bank, Japan) cells were seeded onto 96-well plate at 5×10^4 cells/ml and cultured in DMEM-F12 (Gibco BRL, Grand Island, N.Y., U.S.A.), supplemented with 100 units/mL penicillin, 100 ug/mL streptomycin, and 10% FBS (Fetal Bovine Serum). […] To remove DMEM-F12 media, the plate was centrifuged at 24° C., 3000 rpm for 5 minutes and washed three times with PBS (137 mM NaCl, 2.7 mM KCl, 10 mM Na2HPO4, and 2 mM KH2PO4). Then, ethanol-containing media (200 mM ethanol-containing DMEM-F12, supplemented with 100 units/mL penicillin, 100 ug/mL streptomycin, and 10% FBS) was added to the cells, and the cells were cultured at 37° C. for 16 hours. After the incubation, the culture was centrifuged at 24° C., 3000 rpm for 5 minutes to remove the culture medium and then total viable cell numbers were assessed by MTT (3-[4,5-dimethylthiazol-2-yl]-2,5-diphenyl tetrazolim bromide) assay method. 1 mg/ml of an MTT solution prepared by dissolving MTT (Amresco, Ohio, U.S.A.) in PBS (137 mM NaCl, 2.7 mM KCl, 10 mM Na2HPO4, and 2 mM KH2PO4) was added to each well (50 μl/well), followed by incubation at 37° C. for 4 hours. The supernatant was then removed by centrifugation at 24° C., 3000 rpm for 5 minutes and the formazan grains formed by the viable cells were dissolved in 99.5% dimethylsulfoxide (DMSO) (Kanto, Tokyo, Japan) (50 μl/well), and the optical intensity was measured at 540 nm using an ELISA reader (TECAN, Maennedorf, Switzerland).
# [2] = system: ethanol-induced gastric mucosal lesions; test: Preventive effect on in vivo ethanol-induced gastric injury; design: species or system Sprague-Dawley male rats; conditions: rats, 10 mg/kg via oro-gastric tube prior to absolute ethanol 6 ml/kg for 1 hr, FIG. 3B
# Excerpt: Six-week old specific-pathogen-free (SPF) Sprague-Dawley male rats (Charles River, Tokyo, Japan) were used for experiments. The rats were fed a sterilized commercial pellet diet (Biogenomics Co., Seoul, Korea), given sterile water ad libitum, and housed in air-conditioned biohazard room with a 12-h light:12-h dark cycle. The rats were divided into four groups; indomethacin-only treatment group, revaprazan-indomethacin treatment group, ethanol-only treatment group and revaprazan-ethanol treatment group. The rats were food-deprived 24 hours, and then administered with 10 mg/kg revaprazan suspended in 0.5% CMC (carboxymethylcellulose) via oro-gastric tube prior to exposure to either indomethacin (40 mg/kg for 12 hrs) or absolute ethanol (6 ml/kg for 1 hr). The stomachs of the rats belonging to the groups treated with indomethacin were excised and the degree of gastric mucosal lesions was observed (see FIG. 3A). Referring to FIG. 3A, in the indomethacin-only treatment group, increased hemorrhagic lesions in gastric mucosa were observed visually. […] Also, the stomachs of the rats belonging to the ethanol treatment groups were excised and the degree of gastric mucosal lesions was observed (see FIG. 3B).
# [3] = system: NF-kB (nuclear factor-kappa B); test: DNA binding activity of NF-kB after H. pylori infection (EMSA); type: cell-based, human; conditions: FIG. 5
# Description: The DNA binding activity of NF-kB (nuclear factor-kappa B), a redox-sensitive transcription factor known to be associated with H. pylori infection was evaluated using EMSA. Rebamipide (50 μM), known to have cytoprotective properties, was used as a control drug, and revaprazan (25 μM) was used as a test drug. The human gastric epithelial (AGS, KCLB 21739) cells were seeded in culture dishes at 2×10^6 cells/100 mm^2 and cultured in RPMI 1640 (Gibco BRL, Grand Island, N.Y., U.S.A.), supplemented with 100 units/mL penicillin, 100 ug/mL streptomycin, and 10% FBS (Fetal Bovine Serum). […] The culture media were removed and the cells were twice washed with PBS (137 mM NaCl, 2.7 mM KCl, 10 mM Na2HPO4, and 2 mM KH2PO4). For inoculation, H. pylori (ATCC 43504) cultures were resuspended in PBS and cocultured with AGS cells at a final concentration of 5×10^8 CFU/ml at 37° C. for one hour. The nuclear fractions for EMSA were prepared using the NE-PER Nuclear and the Cytoplasmic Extraction Kit (Pierce, Rockford, Ill., U.S.A.). Sequences of double-stranded oligonucleotides used for EMSA of NF-kB were as follows; [NT], and the oligonucleotides were labeled with a Biotin 3' End DNA Labeling Kit (Pierce, Rockford, Ill., U.S.A.). The EMSA was performed with a Light Shift Chemiluminescent EMSA Kit (Pierce, Rockford, Ill., U.S.A.).
# [4] = system: VEGF (Vascular Endothelial Growth Factor); test: Expression level of VEGF in sulindac-treated cells (RT-PCR); type: cell-based, rat; conditions: RGM-1 cells, revaprazan 25 uM (rebamipide 50 uM) 16 hours, then sulindac 100 uM 8 hours, FIG. 6
# Description: (§1) In order to evaluate cytoprotective effect of revaprazan, 100 μM of sulindac belonging to NSAIDs was added to the rat cells, and the expression levels of pro-angiogenic growth factors, VEGF (Vascular Endothelial Growth Factor), interleukin-8 (IL-8), and COX-2 (cyclooxygenase-2) were measured. Rebamipide (50 μM), known to have cytoprotective properties, was used as a control drug and revaprazan (25 μM) was used as a test drug. The rat gastric mucosal (RGM-1, RIKEN cell bank, Japan) cells were seeded in culture dishes at 2×10^6 cells/100 mm^2 and cultured in RPMI 1640 (Gibco BRL, Grand Island, N.Y., U.S.A.), supplemented with 100 units/mL penicillin, 100 ug/mL streptomycin, and 10% FBS (Fetal Bovine Serum). […] The culture media were removed and the cells were washed three times with PBS (137 mM NaCl, 2.7 mM KCl, 10 mM Na2HPO4, and 2 mM KH2PO4). A solution of sulindac in DMSO was added to the cells to reach a final concentration of 100 uM and the cells were cultured at 37° C. for 8 hours. The cultured cells were collected by centrifugation at 23° C. at 3000 rpm for 3 minutes, and the total RNA was isolated from the cells using the TRIzol reagent (Life technologies, Milan, Italy). Sterilized RNase-free water was added to 2 μg of the total RNA and 1 μl of 10 pmol/λ oligo dT to obtain reaction solutions with a volume of 34 μl. […]
# COX-2 (cyclooxygenase-2) = test: Expression level of COX-2 in sulindac-treated cells (RT-PCR); type: cell-based, rat; conditions: RGM-1 cells, revaprazan 25 uM (rebamipide 50 uM) 16 hours, then sulindac 100 uM 8 hours, FIG. 6
# Description: as §1
# [5] = system: indomethacin-induced gastric mucosal lesions; test: Treatment effect on NSAID-induced gastropathy; type: in vivo, Sprague Dawley male rats; conditions: rats, 5 mg/kg and 10 mg/kg given 8 hours after indomethacin 40 mg/kg, for one hour, FIG. 9
# Description: Six-week old specific-pathogen-free (SPF) Sprague Dawley male rats (Charles River, Tokyo, Japan) were used for experiments. The rats were fed a sterilized commercial pellet diet (Biogenomics Co., Seoul, Korea), given sterile water ad libitum, and housed in air-conditioned biohazard room with a 12-h light:12-h dark cycle. The rats were food-deprived 24 hours, and then treated with 1 ml of a solution of indomethacin (40 mg/kg) in 0.5% CMC (carboxymethylcellulose) via oro-gastric tube. 8 hours after the indomethacin treatment, the rats were treated with 1 ml of a solution of revaprazan (5 mg/kg and 10 mg/kg) in 0.5% CMC for one hour, and the degree of gastropathy was determined in the same manner as in Example 8.
smiles,measurement,setting,value
"Cc1nc(Nc2ccc(F)cc2)nc(N2CCc3ccccc3C2C)c1C (stereo not drawn) [revaprazan, 5,6-dimethyl-2-(4-fluorophenylamino)-4-(1-methyl-1,2,3,4-tetrahydroisoquinolin-2-yl)pyrimidine]",cytoprotective effect against ethanol-induced cytotoxicity compared with rebamipide,[1]; 50 uM each,equal to or greater than rebamipide
same,ethanol-induced gastric mucosal cytotoxicity,"[1]; 50 uM pretreatment for 16 hours, then 200 mM ethanol for 16 hours",significantly reduced
same,ethanol-induced gastric injury,[2],completely inhibited
same,NF-kB activity (DNA binding),"[3]; AGS cells, 25 uM pretreatment for 16 hours, then H. pylori one hour",significantly inhibited
same,cytoprotective effect (NF-kB inhibition) compared with rebamipide,[3]; revaprazan 25 uM vs rebamipide 50 uM,equal to or greater than rebamipide
same,expression level of VEGF versus rebamipide-sulindac treatment group,[4],much higher
same,expression level of COX-2 versus rebamipide-sulindac treatment group,COX-2 (cyclooxygenase-2),much higher
same,gastric mucosal hemorrhagic lesions after treatment,[5],remarkably improved
same,number of erosions and ulcers,[5],reduced
